Patent US20050032124A1, “Identification of genotype-selective agents for treating Huntington's disease” (priority 2003, published 2005)

Experiments:
Format in all cases: cell-based, human
[1] = tested on: BJ primary cells; assay: Calcein AM viability assay, dilution-series retest; settings: BJ cells; 16-point two-fold dilution; two days
Source text: (§1) Described here is work carried out to identify compounds with increased potency or activity in the presence of hTERT, LT, ST, E6, E7 or RAS^V12. Engineered cell lines with these genetic elements were used to screen […] compounds, including 20,000 compounds from a combinatorial library, 1,990 compounds from the National Cancer Institute diversity collection, and 1,540 biologically active known compounds that were selected and purchased by Applicant and formatted into a screenable collection. The primary screen tested (in quadruplicate) the effect of treating tumorigenic BJ-TERT/LT/ST/RAS^V12 engineered tumorigenic cells with each compound for 48 hours at a concentration of 4 μg/mL, corresponding to 10 μM for a compound with a molecular weight of 400, which is the approximate median molecular weight of the libraries. Cell viability was measured using the dye calcein acetoxymethyl ester (calcein AM) (Wang et al., 1993, Hum. Immunol. 3 7, 264-270), which is a non-fluorescent compound that freely diffuses into cells. In live cells, calcein AM is cleaved by intracellular esterases, forming the anionic fluorescent derivative calcein, which cannot diffuse out of live cells. […] The IC50 value (concentration required to inhibit 50% of the calcein AM signal) was calculated for each compound in each cell line (Table 1). […] Following is a more detailed analysis of these nine compounds.
(§2) Calcein acetoxylmethyl ester (AM) is a cell membrane-permeable, non-fluorescent compound that is cleaved by intracellular esterases to form the anionic, cell-impermeable, fluorescent compound calcein. Viable cells are stained by calcein because of the presence of intracellular esterases and because the intact plasma membrane prevents fluorescent calcein from leaking out of cells (Wang et al., 1993, supra). Cells were seeded in 384-well plates using a Zymark Sciclone ALH, treated with each compound in triplicate at 4 μg/mL in the primary screen for two days, washed with phosphate-buffered saline on a Packard Minitrak with a 384-well washer and incubated for four hours with 0.7 μg/mL calcein (Molecular Probes). Total fluorescence intensity in each well was recorded on a Packard Fusion platereader, and converted to a percent inhibition of signal by subtracting the instrument background and dividing by the average signal obtained when cells were not treated with any compound.
(§3) Replica daughter plates were prepared with a Zymark Sciclone ALH and integrated Twister II by diluting stock plates 50 fold in medium lacking serum and pen/strep to obtain a compound concentration in daughter plates of 80 μg/ml with 2% DMSO. Assay plates were prepared by seeding cells in black, clear bottom 384-well plates in columns 1-23 (6000 cells/well in 57 μl) using a syringe bulk dispenser. Columns 3-22 were treated with compounds from a daughter library plate by transferring 3 μl from the daughter library plate using 384-position fixed cannula array. The final compound concentrations in assay plates were thus 4 μg/ml. The assay plates were incubated for 48 hours at 37° C. in humidified incubator containing 5% CO2. Plate processing for the calcein AM viability assay was performed using an integrated Minitrak/Sidetrak robotic system from Packard Bioscience (Perkin Elmer). Assay plates were washed with phosphate buffered saline, and 20 μl of calcein AM (0.7 μg/ml) per well was added. Plates were incubated at room temperature for 4 hours. Fluorescence intensity was determined using a Fusion platereader with filters centered on an excitation of 485 nm and an emission of 535 nm.
(§4) Compounds to be retested were purchased from manufacturers. Stocks were prepared in DMSO at a concentration of 1 mg/ml in 384-well polypropylene plates with a 16-point, two-fold dilution dose curve of each compound in a column, in duplicates. Column 1-2 and 23-24 were left empty for controls. […]

[2] = tested on: BJ-TERT/LT/RAS^V12/ST cells; assay: Calcein AM viability assay, dilution-series retest; settings: BJ-TERT/LT/Ras^V12/ST cells; 16-point two-fold dilution; two days
Source text: as §1, §2, §3, §4

[3] = tested on: BJ-TERT/LT/ST cells; assay: Calcein AM viability assay, dilution-series retest; settings: BJ-TERT/LT/ST cells; 16-point two-fold dilution; two days
Source text: as §1, §2, §3, §4

[4] = tested on: BJ-TERT/LT/ST/RAS^V12 tumorigenic cells; assay: Calcein AM viability assay, dilution-series retest
Description: Described here is work carried out to identify compounds with increased potency or activity in the presence of hTERT, LT, ST, E6, E7 or RAS^V12. […] The primary screen tested (in quadruplicate) the effect of treating tumorigenic BJ-TERT/LT/ST/RAS^V12 engineered tumorigenic cells with each compound for 48 hours at a concentration of 4 μg/mL, corresponding to 10 μM for a compound with a molecular weight of 400, which is the approximate median molecular weight of the libraries. Cell viability was measured using the dye calcein acetoxymethyl ester (calcein AM) (Wang et al., 1993, Hum. Immunol. 3 7, 264-270), which is a non-fluorescent compound that freely diffuses into cells. In live cells, calcein AM is cleaved by intracellular esterases, forming the anionic fluorescent derivative calcein, which cannot diffuse out of live cells. […] The IC50 value (concentration required to inhibit 50% of the calcein AM signal) was calculated for each compound in each cell line (Table 1).
as §2, §3
(§5) Compounds to be retested were purchased from manufacturers. Stocks were prepared in DMSO at a concentration of 1 mg/ml in 384-well polypropylene plates with a 16-point, two-fold dilution dose curve of each compound in a column, in duplicates. Column 1-2 and 23-24 were left empty for controls. Daughter retest plates were prepared from stock retest plate by diluting 66.6 fold in DMEM in 384-well deep-deep well plates (4.5 μl transfer into 300 μl). Cells were seeded at a density of 6000 per well in 40 μl, and 20 μl was added from a daughter retest plate. The plates were incubated for two days at 37° C. with 5% CO2.

[5] = tested on: TIP5/TERT cells; assay: Calcein AM viability assay, dilution-series retest; settings: TIP5-TERT cells; 16-point two-fold dilution; two days
Source text: (§6) In a third series, cell lines derived from independently prepared human TIP5 foreskin fibroblasts created by introducing cDNA constructs encoding hTERT, LT, ST and RASV12 (Lessnick et al., 2002, Cancer Cell 1, 393-401) were used. These cell lines were called, respectively: TIP5/TERT, TIP5/TERT/LT, TIP5/TERT/LT/ST, and TIP5/TERT/LT/ST/RAS^V12. In a fourth series, cell lines derived from TIP5 fibroblasts created by introducing cDNA constructs encoding hTERT, E6, E7, ST and RAS^V12 were used. These cell lines were named, respectively: TIP5/TERT/E6, TIP5/TERT/E6/E7, TIP5/TERT/E6/E7/ST, and TIP5/TERT/E6/E7/ST/RAS^V12. In this series, HPV E6 and E7, which inactivate p53 and RB, respectively, serve a similar function as LT in the previous series. However, by using HPV E6 and E7, Applicants were able to observe the effects of inactivating, separately and independently, p53 and RB. Results of a large-scale screen for compounds that display selective killing of these engineered tumorigenic cell lines are described in the examples that follow.
as §2, §3, §5
(§7) Mean RFU (relative fluorescence units) for untreated cells was calculated by averaging columns 1, 2, and 23 (wells with cells but lacking compounds). […]

[6] = tested on: TIP5/TERT/E6/E7 cells; assay: Calcein AM viability assay, dilution-series retest; settings: TIP5-TERT/E6E7 cells; 16-point two-fold dilution; two days
Source text: as §6, §2, §3, §5, §7

[7] = tested on: TIP5/TERT/E6/E7/ST cells; assay: Calcein AM viability assay, dilution-series retest; settings: TIP5-TERT/E6E7/ST cells; 16-point two-fold dilution; two days
Source text: as §6, §2, §3, §5, §7

[8] = tested on: TIP5/TERT/E6/E7/ST/RAS^V12 cells; assay: Calcein AM viability assay, dilution-series retest; settings: TIP5-TERT/E6E7/ST/Ras^V12 cells; 16-point two-fold dilution; two days
Source text: as §6, §2, §3, §5, §7

[9] = tested on: TIP5/TERT/LT cells; assay: Calcein AM viability assay, dilution-series retest; settings: TIP5 TERT/LT cells; 16-point two-fold dilution; two days
Source text: as §6, §2, §3, §5, §7

[10] = tested on: TIP5/TERT/LT/ST/RAS^V12 cells; assay: Calcein AM viability assay, dilution-series retest; settings: TIP5 TERT/LT/ST/Ras^V12 cells; 16-point two-fold dilution; two days
Source text: as §6, §2, §3, §5, §7

[11] = tested on: BJ primary cells; assay: Sensitization of primary cells by co-treatment, calcein AM viability staining; settings: BJ (or BJ-TERT) cells; simultaneous treatment
Source text: (A-C) Western blot of lysates from BJ, BJ-TERT, BJ-TERT/LT/ST, BJ-TERT/LT/ST/RAS^V12, BJ-TERT/LT/RAS^V12 and BJ-TERT/LT/RAS^V12/ST cells with an antibody directed against topoisomerase II (A) or TOPI (B, C). In panel (C), cells were transfected with an siRNA directed against TOPI, lamic A/C or with a control double strand DNA duplex of the same length (TOPI dsDNA). In each case, the blot was probed with an antibody against eIF-4E to identify differences in the amount of protein loaded. The relative amount is quantitated below each band. […] Cell number was determined after transfection with an siRNA directed against TOPI and treatment with the indicated concentrations of camptothecin. (E) Okadaic acid, an inhibitor of PP2A and other cellular phosphatases, sensitizes primary human cells to camptothecin. BJ primary cells were treated simultaneously with the indicated concentrations of both camptothecin and okadaic acid and the effect on calcein AM viability staining was determined. […] BJ primary cells were treated with the indicated concentrations of okadaic acid and the expression level of TOPI was determined by western blot. The relative amount is quantitated below each band.
The compounds in group (iii) are camptothecin (CPT) and a novel compound from a combinatorial library, which Applicants have named erastin, for eradicator of RAS and ST-expressing cells (FIG. 2). Efficient CPT-induced and erastin-induced cell death requires the presence of both ST and RAS^V12 (FIGS. 3 and 4 and Table 1). Although CPT and erastin have a similar genetic basis of selectivity, they have distinct mechanisms of action. […] The phosphatase inhibitor okadaic acid was capable of sensitizing otherwise resistant BJ primary cells to CPT (FIG. 5E), possibly because okadaic acid upregulates TOPI (FIG. 5F).

Cc1c2ccccc2c(CSC(=N)N)c2ccccc12.Cl [NSC146109]
concentration required to achieve 50% inhibition of calcein AM staining (IC50), BJ [1]: >5 µg/mL | IC50, BJ-TERT/LT/Ras^V12/ST [2]: 2.5 µg/mL | IC50, BJ-TERT/LT/ST [3]: 2.5 µg/mL | IC50, BJ-TERT/LT/ST/Ras^V12 ([4]; BJ-TERT/LT/ST/Ras^V12 cells, 16-point two-fold dilution, two days): 2.5 µg/mL | Tumor Selectivity ([4]; IC50 in primary BJ cells divided by IC50 in BJ-TERT/LT/ST/RAS^V12 tumorigenic cells): >4 | IC50, TIP5-TERT [5]: >5 µg/mL | IC50, TIP5-TERT/E6E7 [6]: 2.5 µg/mL | IC50, TIP5-TERT/E6E7 ST [7]: 2.5 µg/mL | IC50, TIP5-TERT/E6E7 ST/Ras^V12 [8]: 2.5 µg/mL | IC50, TIP5 TERT/LT [9]: >5 µg/mL | IC50, TIP5 TERT/LT/ST/Ras^V12 [10]: 2.5 µg/mL

COc1cc([C@@H]2c3cc4c(cc3[C@H](O)[C@H]3COC(=O)[C@H]23)OCO4)cc(OC)c1OC [podophyllotoxin]
sensitization of cells to camptothecin [11]: does not sensitize BJ or BJ-TERT cells to CPT
